From the supplement of paper PMC13380429

Tests used:
Settings in all cases: 72 h
[1] = system: U2OS; assay: relative viability EC50 (midpoint between 100% and the lowest measured viability); higher = less toxic
[2] = system: Calu-3; assay: as above
[3] = system: Vero E6; assay: as above
[4] = system: Caco-2; assay: as above
[5] = system: HepG2; assay: as above
[6] = system: U2OS; assay: cell viability relative to DMSO; higher = less toxic
[7] = system: Calu-3; assay: as above
[8] = system: Vero E6; assay: as above
[9] = system: Caco-2; assay: as above
[10] = system: HepG2; assay: as above
[11] = system: U2OS; assay: drug sensitivity score (DSS) for viability; higher = more toxic; extreme values may be limits of the assay
[12] = system: Calu-3; assay: as above
[13] = system: Vero E6; assay: as above
[14] = system: Caco-2; assay: as above
[15] = system: HepG2; assay: as above

| SMILES | relative viability EC50 [1] [µM] | relative viability EC50 [2] [µM] | relative viability EC50 [3] [µM] | relative viability EC50 [4] [µM] | relative viability EC50 [5] [µM] | cell viability ([6]; 1 nM) [%] | cell viability ([6]; 10 nM) [%] | cell viability ([6]; 100 nM) [%] | cell viability ([6]; 1000 nM) [%] | cell viability ([6]; 10000 nM) [%] | cell viability ([7]; 1 nM) [%] | cell viability ([7]; 10 nM) [%] | cell viability ([7]; 100 nM) [%] | cell viability ([7]; 1000 nM) [%] | cell viability ([7]; 10000 nM) [%] | cell viability ([8]; 1 nM) [%] | cell viability ([8]; 10 nM) [%] | cell viability ([8]; 100 nM) [%] | cell viability ([8]; 1000 nM) [%] | cell viability ([8]; 10000 nM) [%] | cell viability ([9]; 1 nM) [%] | cell viability ([9]; 10 nM) [%] | cell viability ([9]; 100 nM) [%] | cell viability ([9]; 1000 nM) [%] | cell viability ([9]; 10000 nM) [%] | cell viability ([10]; 1 nM) [%] | cell viability ([10]; 10 nM) [%] | cell viability ([10]; 100 nM) [%] | cell viability ([10]; 1000 nM) [%] | cell viability ([10]; 10000 nM) [%] | drug sensitivity score [11] | drug sensitivity score [12] | drug sensitivity score [13] | drug sensitivity score [14] | drug sensitivity score [15] |
| --- | --- | --- | --- | --- | --- | --- | --- | --- | --- | --- | --- | --- | --- | --- | --- | --- | --- | --- | --- | --- | --- | --- | --- | --- | --- | --- | --- | --- | --- | --- | --- | --- | --- | --- | --- |
| CC1=C(CC(=O)O)c2cc(F)ccc2/C1=C\c1ccc([S+](C)[O-])cc1 (stereo not given) [sulindac] | > 10 | > 10 | > 10 | > 10 | > 10 | 101 | 99.2 | 97.4 | 101 | 97.4 | 102 | 113 | 96.5 | 98 | 101 | 105 | 102 | 103 | 92.9 | 94.4 | 96 | 100 | 103 | 94.9 | 85.1 | 117 | 90.2 | 93.3 | 84 | 108 | 0 | 0 | 0 | 0.6 | 0 |
| C=CC[C@@H]1/C=C(\C)C[C@H](C)C[C@H](OC)[C@H]2O[C@@](O)(C(=O)C(=O)N3CCCC[C@H]3C(=O)O[C@H](/C(C)=C/[C@@H]3CC[C@@H](O)[C@H](OC)C3)[C@H](C)[C@@H](O)CC1=O)[C@H](C)C[C@@H]2OC [tacrolimus] | > 10 | > 10 | > 10 | > 10 | > 10 | 96.9 | 102 | 98.7 | 104 | 98 | 99.1 | 103 | 96.6 | 100 | 107 | 96.3 | 91.6 | 88.5 | 90.3 | 108 | 99.8 | 101 | 88.8 | 103 | 93.8 | 108 | 99.6 | 103 | 98.2 | 104 | 0 | 0 | 0 | 0 | 0 |
| CN(C(=O)c1ccc(F)cc1C(F)(F)F)C1CCN(c2nnc(-c3ccnn3C)c3ccccc23)CC1 [taladegib] | > 10 | > 10 | > 10 | > 10 | > 10 | 94.9 | 101 | 93 | 101 | 95.6 | 93.1 | 93.7 | 92.8 | 109 | 99.4 | 106 | 99.5 | 102 | 90.9 | 91.4 | 96.9 | 92.2 | 87.7 | 106 | 92.8 | 120 | 113 | 111 | 93.5 | 93.2 | 0 | 0 | 0 | 0 | 0 |
| Cn1c(C#N)ccc1-c1ccc2c(c1)C(C)(C)OC(=S)N2 [tanaproget] | > 10 | > 10 | > 10 | > 10 | 1.86 | 102 | 103 | 102 | 103 | 94.9 | 105 | 106 | 101 | 108 | 88.9 | 102 | 103 | 98.2 | 105 | 107 | 98 | 101 | 100 | 94.8 | 75.4 | 106 | 109 | 95.8 | 87 | 24.7 | 0 | 0 | 0 | 1.7 | 6.3 |
| O=C1c2c(O)cc(O)cc2O[C@H](c2ccc(O)c(O)c2)[C@H]1O [taxifolin] | > 10 | > 10 | > 10 | > 10 | > 10 | 95.2 | 96.5 | 92.9 | 96.2 | 89.9 | 101 | 110 | 90.1 | 102 | 99.5 | 94.4 | 99.4 | 94.2 | 97.6 | 104 | 91.5 | 106 | 105 | 104 | 96 | 101 | 94.4 | 98.5 | 100 | 97.5 | 0 | 0 | 0 | 0 | 0 |
| CCN(c1cc(-c2ccc(CN3CCOCC3)cc2)cc(C(=O)NCc2c(C)cc(C)[nH]c2=O)c1C)C1CCOCC1 [tazemetostat] | > 10 | > 10 | > 10 | > 10 | > 10 | 97.7 | 96.9 | 101 | 102 | 93.8 | 91.2 | 103 | 98.3 | 98 | 104 | 96.2 | 97.7 | 95.2 | 98.9 | 98.9 | 91.9 | 101 | 98.9 | 101 | 92.6 | 86.1 | 97 | 90.3 | 96.9 | 95.3 | 0 | 0 | 0 | 0 | 0 |
| O=C1C(O)=C(O)C(=O)C(O)=C1O [tetroquinone] | > 10 | > 10 | > 10 | > 10 | > 10 | 99.9 | 99.5 | 97.8 | 99.8 | 104 | 97.3 | 98.2 | 98.1 | 87.1 | 93.3 | 98.3 | 100 | 97.6 | 96.7 | 95.1 | 103 | 99.6 | 96.9 | 104 | 97.6 | 97.9 | 100 | 101 | 106 | 91.7 | 0 | 0 | 0 | 0 | 0 |
| CSc1ccccc1OCC(O)CNC(C)C (stereo not given) [tiprenolol] | > 10 | > 10 | > 10 | > 10 | > 10 | 97.9 | 96.2 | 106 | 101 | 99.3 | 104 | 106 | 100 | 97.3 | 103 | 100 | 98.5 | 98.6 | 91.8 | 86.7 | 108 | 102 | 93.6 | 83 | 113 | 98.6 | 92.6 | 102 | 99.9 | 98.5 | 0 | 0 | 0.3 | 0 | 0 |
| C#Cc1cnc2nc(O)n(C(CC)CC)c2n1 [tirasemtiv] | > 10 | > 10 | > 10 | > 10 | > 10 | 103 | 100 | 101 | 98.6 | 98.5 | 95.8 | 98.7 | 103 | 95.7 | 106 | 94.8 | 101 | 93.4 | 96.9 | 106 | 90.7 | 92.8 | 103 | 107 | 103 | 102 | 113 | 99.4 | 115 | 98.5 | 0 | 0 | 0 | 0 | 0 |
| CCc1ccc(Cc2ccc3c(c2)[C@]2(OC3)O[C@H](CO)[C@@H](O)[C@H](O)[C@H]2O)cc1 [tofogliflozin] | > 10 | > 10 | > 10 | > 10 | > 10 | 97.9 | 96.9 | 97.5 | 98 | 95.5 | 90.9 | 92.7 | 108 | 103 | 108 | 93.9 | 95.6 | 99.4 | 94.6 | 98.4 | 97.8 | 98.5 | 86.1 | 97 | 90.5 | 106 | 94.3 | 102 | 105 | 95.5 | 0 | 0 | 0 | 0 | 0 |
| CCCCC/C=C\C=C\CCCCCCCCC(=O)O [trans-10,cis-12-conjugated-linoleic-acid] | > 10 | > 10 | > 10 | > 10 | > 10 | 97.8 | 96.8 | 103 | 97.4 | 102 | 102 | 96.1 | 100 | 96.2 | 101 | 109 | 108 | 102 | 102 | 99.1 | 94.9 | 101 | 96.6 | 101 | 99.6 | 107 | 92 | 90.8 | 101 | 100 | 0 | 0 | 0 | 0 | 0 |
| CCOC1O[C@H]([C@@H](COCc2ccccc2)OCc2ccccc2)[C@H](OCc2ccccc2)[C@H]1O (stereo not given in full) [tribenoside] | > 10 | > 10 | > 10 | > 10 | > 10 | 93.9 | 96.3 | 101 | 97.3 | 98 | 93.5 | 94.6 | 102 | 105 | 106 | 91.6 | 94.8 | 91.6 | 93.7 | 111 | 93 | 96.2 | 90.3 | 95.6 | 94 | 91.4 | 104 | 93.6 | 92.6 | 94.2 | 0 | 0 | 0 | 0 | 0 |
| Cc1c(C)c2c(c(C)c1O)CCC(C)(C(=O)O)O2 (stereo not given) [trolox] | > 10 | > 10 | > 10 | > 10 | > 10 | 104 | 95.6 | 105 | 97 | 103 | 105 | 105 | 98.1 | 106 | 104 | 94.7 | 105 | 102 | 95.9 | 77.9 | 106 | 103 | 88.5 | 93.3 | 90.9 | 96.8 | 90.2 | 92.6 | 87.6 | 98.8 | 0 | 0 | 1.3 | 0.8 | 0 |
| NC(CO)(CO)CO [trometamol] | > 10 | > 10 | > 10 | > 10 | > 10 | 93.3 | 96.6 | 98.8 | 101 | 107 | 92.4 | 117 | 103 | 101 | 108 | 102 | 98.6 | 106 | 86.4 | 95.4 | 93.4 | 102 | 111 | 112 | 97.3 | 101 | 93.7 | 106 | 86 | 100 | 0 | 0 | 0 | 0 | 0 |
